Holding throughout (experiment): inhibition of tumour cell growth, NCI panel, 48 h
Assay [1] has as its system HS 578T breast.
Assay [2] concerns SF-268 CNS.
The subject of assay [3] is U251 CNS.
Assay [4] has as its system HCT-116 colon.
Assay [5] concerns K-562 leukemia.
Assay [6] concerns OVCAR-5 ovarian.
The subject of assay [7] is 786-0 renal.
Assay [8] has as its system KM12 colon.
For assay [9], the system named is UACC-62 melanoma.
Assay [10] has as its system BT-549 breast.
For assay [11], the system named is CAKI-1 renal.
Assay [12] deals with NCI-H23 lung.
The test system of assay [13] is ACHN renal.
In assay [14] the test system is COLO 205 colon.
For assay [15], the system named is HOP-62 NSCLC.
In assay [16] the test system is A549 NSCLC.
For assay [17], the system named is SN12C renal.
Assay [18] deals with MDA-N.
For assay [19], the system named is DU-145 prostate.

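Exposure lasted 48 hours, with cells grown in 96-well plates and compounds tested at five concentrations. TGI is the concentration that stops growth completely.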

Take `O=C(NNC1=NCCCCN1)Nc1ccc(Cl)cc1`: the TGI in assay [1], in assay [2], in assay [3], in assay [4], in [5] and in assay [6] was above 100 µM each time. The TGI in [7], in [8], in assay [9], in [10], in [11] and in assay [12] was above 100 µM throughout. The TGI in [13], in assay [14], in assay [15] and in [16] was above 100 µM each time.
For the compound `COC(=O)C(C)(C)[C@@H]1OC(=O)N(S(=O)(=O)c2c(C)cc(C)cc2C)[C@H]1C(C)C`, the TGI in assay [1], in [2], in assay [3], in assay [17], in [4] and in [18] was above 100 µM in each case. Besides, the TGI in [5], in [6], in assay [7], in assay [8], in assay [9] and in assay [12] was above 100 µM in each case. Besides, the TGI in assay [13], in assay [14], in assay [15], in [16] and in assay [19] was above 100 µM throughout.
Turning to `CCOC(=O)C1C(C)C2(C#N)C(=N)OC1(C)C2(C#N)C#N` (configuration not stated), the TGI in [1], in assay [2], in assay [3], in [17], in assay [4] and in [18] was above 100 µM in each case. Besides, the TGI in assay [5], in assay [6], in assay [7], in assay [8], in assay [9] and in [11] was above 100 µM each time. Moreover, the TGI in assay [12], in [13], in [14], in assay [16] and in [19] was above 100 µM each time.
On to `COC(=O)c1ccccc1CC(Cc1ccc2c(c1)CCC2)C(=O)OC` (configuration not stated), for which the TGI in [1], in assay [2], in assay [3], in assay [17], in assay [4] and in assay [18] was above 100 µM each time. Also, the TGI in [5], in assay [6], in assay [7], in assay [8], in [11] and in [12] was above 100 µM each time. Moreover, the TGI in [13], in assay [14], in assay [15], in assay [16] and in assay [19] was above 100 µM each time.
Take `C/C=C1\CC2C(=O)CCC2C2c3ccccc3OC12` (configuration not stated): the TGI in assay [1] was above 100 µM; in assay [2], above 100 µM; in assay [3], above 100 µM; in assay [17], 0.821 µM; in assay [4], above 100 µM; in assay [18] it was 0.24 µM. In addition, the TGI in assay [5], in assay [6], in assay [7], in [8], in assay [9] and in assay [11] was above 100 µM in each case. Also, the TGI in [12] is above 100 µM; in assay [13], above 100 µM; in [14], above 100 µM; in assay [15], above 100 µM; in assay [16], above 100 µM; in [19], 10.7 µM.
For the compound `C=C/C(C)=C\CC1[C@](C)(O)CC[C@H]2C(C)(C)C(O)CC[C@]12C` (some centres not stated), the TGI in [1], in [2], in assay [3], in assay [17], in assay [4] and in assay [18] was above 100 µM in each case. In addition, the TGI in [5], in assay [6], in assay [7], in assay [8], in [9] and in [11] was above 100 µM in each case. For the same compound, the TGI in [12], in [13], in [14], in assay [16] and in assay [19] was above 100 µM throughout.
Turning to `CCOC(=O)C1(C(=O)OCC)C[C@@H](C)[C@@H](O)C1`, the TGI in assay [1], in assay [2], in [3], in assay [17], in [4] and in assay [18] was above 100 µM each time. Moreover, the TGI in assay [5], in assay [6], in assay [7], in assay [8], in assay [9] and in assay [11] was above 100 µM throughout. Further, the TGI in [12], in assay [13], in [14], in [15], in assay [16] and in assay [19] was above 100 µM each time.
Turning to `CN(C)CCNC(=O)c1cccc2c(NC(CS)C(=O)O)c3ccccc3[n+](C)c12` (configuration not stated), the TGI is above 100 µM in assay [1]; 80.8 µM in assay [2]; above 100 µM in assay [3]; above 100 µM in [17]; above 100 µM in assay [4]; above 100 µM in assay [5]. The TGI in assay [6] is above 100 µM; in assay [7], above 100 µM; in assay [8] it was above 100 µM; in [9], above 100 µM; in assay [10], 98.2 µM; in [12] it was above 100 µM. For the same compound, the TGI in assay [13], in assay [14], in [15], in assay [16] and in [19] was above 100 µM throughout.

The record behind these values is PubChem BioAssay (NCI).
